One molecule from patent US12533357B2, “Treatment for acute myeloid leukemia or myelodysplastic syndrome” (UNIVERSITY HEALTH NETWORK, priority 2019, dated 2026) can be followed below.

Assay in all cases: In vitro cytotoxicity (IC50) assay, alamarBlue
Common to all, as to format: cell-based
A general note: Alamar Blue is a resazurin reagent that responds to reducing activity.

The test system of assay [1] is OCI-LY8. The note with it: OCI-LY8, NHL GCB-DLBCL. How it is done:
(§1) Cells were seeded in triplicate at 10,000 per 80 uL, into 96-well plates 24 hours before compound overlay and cultured at 37° C. and 5% CO2. Compound (I) was prepared as a 10 mM stock in 100% DMSO and diluted with RPMI 1640 cell growth medium containing 10% FBS such that the final concentrations ranged from 50 pM to 15 uM. Aliquots (20 uL) from each concentration were overlaid to 80 uL of pre-seeded cells to achieve final concentrations of 10 pM to 3 uM. After 3 days, cell viability in each well was assessed by alamarBlue assay according to the manufacturer's instruction (ThermoFisher Scientific). Absorbance was read at 570 nm using a SpectraPlus microplate reader (Molecular Devices Corporation). alamarBlue absorbance values were adjusted by subtracting the average of the baseline readings from untreated cells assessed one day after cell seeding. The percentage (%) of relative inhibition of cell viability was calculated by comparing to DMSO-treated cells. IC50s were calculated using GraphPad PRISM software (GraphPad Software Inc.).

Assay [2] relates to OCI-AML2. The note with it: OCI-AML2, AML M4. Here is the method: as §1
Assay [3] concerns TF-1. The note with it: TF-1, AML M6. How it is done: as §1
The subject of assay [4] is HL-60. The note with it: HL-60, AML M2. How it is done: as §1
Assay [5] relates to RS4;11. The following applies: RS4;11, B-ALL. Here is the method:
as §1

Setting [6] is: Homo sapiens, 72 h, 3 days, read-out: Compound (I) IC50.

Usually IC50 stands for the concentration that gives 50% inhibition. `COc1ccc2c(c1)[C@]1(C[C@H]1c1ccc3c(/C=C/c4ccc(CN5C[C@@H](C)O[C@@H](C)C5)cc4)n[nH]c3c1)C(=O)N2` [Compound (I), (1R,2S)-2-(3-((E)-4-(((2S,6R)-2,6-dimethylmorpholino)methyl)styryl)-1H-indazol-6-yl)-5′-methoxyspiro[cyclopropane-1,3′-indolin]-2′-one]: the “Response to Compound (I)” value in assay [1] is on record as “mitotic defects +”; in assay [2], “mitotic defects +”; in assay [3] it was “death”; in assay [4], “death”; in assay [5], “mitotic defects +”. In addition, the IC50 in assay [3] (setting [6]) amounted to 2.2 nM; in assay [4] (setting [6]) it was 8.4 nM.
